Data as given in patent US20230278972A1, “SUBSTITUTED HALOALKYL SULFONANILIDE HERBICIDES” (FMC Corporation, priority 2020, published 2023).

Assays:
Assay type in all cases: in vivo
[1] = system: goosegrass (Eleusine indica); test: Test A1 preemergence, goosegrass
Outline: (§1)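 Herbicidal response was scored on plants treated either preemergence, by directed spray onto soil of a loam–sand blend after sowing, or postemergence on potted plants at the one- to two-leaf stage, 2–10 cm high. Test chemicals were carried in a non-phytotoxic solvent mix with surfactant.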

kochia (Bassia scoparia) = test: Test A1 postemergence, kochia; details: Postemergence
Outline: (§2)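 Test compounds were formulated in a non-phytotoxic solvent mixture containing a surfactant. For preemergence, seeds sown in a loam soil–sand blend received a directed soil spray. For postemergence, potted plants in the same soil, 2 to 10 cm tall at the one- to two-leaf stage, were sprayed.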

soybean (Glycine max) = test: Test A1 postemergence, soybean; details: Postemergence
Outline: as §2

[2] = system: ragweed (common ragweed, Ambrosia artemisiifolia); test: Test A1 preemergence, ragweed
Outline: as §1

corn (Zea mays) = test: Test A1 postemergence, corn; details: Postemergence
Outline: as §1

[3] = system: goosegrass (Eleusine indica); test: Test A1 postemergence, goosegrass; details: Postemergence
Outline: as §2

[4] = system: Oat, Wild (wild oat, Avena fatua); test: Test A1 preemergence, Oat, Wild
Outline: as §1

[5] = system: wheat (Triticum aestivum); test: Test A1 preemergence, wheat
Outline: as §1

[6] = system: ragweed (common ragweed, Ambrosia artemisiifolia); test: Test A1 postemergence, ragweed; details: Postemergence
Outline: (§3)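 Postemergence species (ragweed, Palmer pigweed, wild oat) were sprayed at one- to two-leaf stage, 2 to 10 cm tall. Corn was treated preemergence by directed soil spray. Both used a loam soil/sand blend and compounds in a non-phytotoxic solvent mixture with surfactant.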

[7] = system: Pigweed, Palmer (palmer amaranth, palmer pigweed, Amaranthus palmeri); test: Test A1 postemergence, Pigweed, Palmer; details: Postemergence
Outline: as §3

[8] = 31 g ai/ha, 0 to 100 scale (0 no effect, 100 complete control)
[9] = 125 g ai/ha, 0 to 100 scale, 0 no effect, 100 complete control
[10] = 31 g ai/ha, 0 to 100 scale (0 no effect, 100 complete control), 10 days

Compound | Plant response rating, Goosegrass [1, 8] | Plant response rating, Goosegrass [1, 9] | Plant response rating, Kochia (kochia (Bassia scoparia); [10]) | Plant response rating, Kochia (kochia (Bassia scoparia); 125 g ai/ha, 0 to 100 scale) | Plant response rating, Soybean (soybean (Glycine max); [10]) | Plant response rating, Soybean (soybean (Glycine max); 125 g ai/ha, 0 to 100 scale) | Plant response rating, Ragweed [2, 8] | Plant response rating, Ragweed [2, 9] | Plant response rating, Corn (corn (Zea mays); [10]) | Plant response rating, Corn (corn (Zea mays); 125 g ai/ha, 0 to 100 scale) | Plant response rating, Goosegrass [3, 10] | Plant response rating, Goosegrass ([3]; 125 g ai/ha, 0 to 100 scale) | Plant response rating, Oat, Wild [4, 8] | Plant response rating, Oat, Wild [4, 9] | Plant response rating, Wheat [5, 8] | Plant response rating, Wheat [5, 9] | Plant response rating, Ragweed [6, 10] | Plant response rating, Ragweed ([6]; 125 g ai/ha, 0 to 100 scale) | Plant response rating, Pigweed, Palmer [7, 10] | Plant response rating, Pigweed, Palmer ([7]; 125 g ai/ha, 0 to 100 scale)
CCOC1CC(c2cc(NS(=O)(=O)C(F)(F)F)c(C)cc2C)=NO1 (centres unmarked) [Compound 318] | 80 | 100 | 30 | 90 | 30 | 40 | 50 | 70 | 30 | 60 | 30 | 30 | 0 | 10 | 0 | 50 | 60 | 80 | 30 | 50
Cc1c(C(=O)N(C)C)cc(NS(=O)(=O)C(F)(F)F)c(Cl)c1F [Compound 320] | 80 | 100 | 30 | 70 | 20 | 70 | 60 | 70 | 0 | 0 | 40 | 0 | 0 | 0 | 10 | 50 | 40 | 80 | 40 | 80
Cc1c(C(=O)N2CCOCC2)cc(NS(=O)(=O)C(F)(F)F)c(Cl)c1F [Compound 321] | 70 | 100 | 40 | 80 | 20 | 40 | 50 | 90 | 10 | 20 | 0 | 80 | 0 | 50 | 0 | 80 | 90 | 90 | 50 | 70
Cc1cc(C)c(C2=NOC(OCC(C)C)C2)cc1NS(=O)(=O)C(F)(F)F (centres unmarked) [Compound 322] | 0 | 90 | 10 | 30 | 20 | 30 | 20 | 30 | 0 | 0 | 20 | 50 | 0 | 30 | 0 | 50 | 70 | 80 | 0 | 50
CCCCOC1CC(c2cc(NS(=O)(=O)C(F)(F)F)c(C)cc2C)=NO1 (centres unmarked) [Compound 323] | 50 | 90 | 50 | 60 | 0 | 30 | 0 | 30 | 0 | 0 | 0 | 50 | 20 | 30 | 0 | 50 | 0 | 50 | 20 | 60
Cc1c(C(=O)N2CCOCC2)cc(N(COC(=O)C(C)(C)C)S(=O)(=O)C(F)(F)F)c(C)c1C [Compound 324, [[(Trifluoromethyl)sulfonyl][2,3,4-trimethyl-5-(4-morpholinylcarbonyl)phenyl]amino]methyl 2,2-dimethylpropanoate] | 80 | 100 | 30 | 50 | 50 | 60 | 20 | 80 | 30 | 30 | 30 | 80 | 20 | 40 | 0 | 70 | 70 | 70 | 30 | 70
CCOC(=O)N(c1cc(C(=O)N2CCOCC2)c(C)c(C)c1C)S(=O)(=O)C(F)(F)F [Compound 325] | 100 | 100 | 20 | 50 | 50 | 80 | 50 | 90 | 10 | 30 | 0 | 90 | 0 | 70 | 20 | 60 | 0 | 70 | 30 | 90
